Source: article PMC4899718, “Establishing Virulence Associated Polyphosphate Kinase 2 as a drug target for Mycobacterium tuberculosis” (Scientific Reports, 2016)

Columns and labels:
PPK-2 (MBP-PPK-2) [1] = target: T1, PPK-2 (MBP-PPK-2) (Mycobacterium tuberculosis, UniProt O05877)
T1 construct: gene ppk2

PPK-2 (MBP-PPK-2) [2] = target: T1, PPK-2 (MBP-PPK-2); assay: luciferase-based ATP synthesis endpoint assay; type: biochemical

T1 sequence (O05877 whole entry, looked up): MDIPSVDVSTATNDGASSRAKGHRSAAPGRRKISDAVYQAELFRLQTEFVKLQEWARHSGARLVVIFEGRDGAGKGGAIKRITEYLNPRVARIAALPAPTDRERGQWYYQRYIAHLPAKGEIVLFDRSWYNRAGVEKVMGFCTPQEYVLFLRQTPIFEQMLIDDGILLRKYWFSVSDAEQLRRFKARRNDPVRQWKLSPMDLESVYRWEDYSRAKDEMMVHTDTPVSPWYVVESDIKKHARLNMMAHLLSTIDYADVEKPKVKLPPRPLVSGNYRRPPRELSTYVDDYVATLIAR

| Compound | luciferase-based ATP quantification (PPK-2 (MBP-PPK-2) [1]) | inhibition at 100 µM (PPK-2 (MBP-PPK-2) [2]) [%] | other results |
| --- | --- | --- | --- |
| Nc1ncnc2c1ncn2[C@@H]1O[C@H](COP(=O)(O)OP(=O)(O)O)[C@@H](O)[C@H]1O [ADP] | ATP synthetic activity of PPK-2 increased in the presence of both ADP and enzyme | – | – |
| O=c1cc2oc3cc(O)c(O)cc3c(-c3ccccc3O)c-2cc1O [NSC-9037] | – | > 80 | – |
| CCOc1ccc(Nc2c3ccccc3nc3ccccc23)cc1 [NSC-30205] | – | > 80 | – |
| O=c1c(O)cccc2cc(O)c(O)c(O)c12 [NSC-35676] | – | – | % inhibition at 100 μM (PPK-2 (MBP-PPK-2) [2]; PolyP17 10 μM as phosphate donor, 10 mM MgCl2, pH 7.4, 37 °C, 10 min pre-incubation, luciferase counter-screened): > 80% |
| CC1Oc2cc3c(-c4c(O)cc(O)c5c(O)c6c(cc45)OC(C)C(C)C6=O)c(O)cc(O)c3c(O)c2C(=O)C1C (stereo not drawn) [NSC-345647] | – | > 80 | – |
| O=P(O)(O)OP(=O)(O)OP(=O)(O)O [PolyP3] | MBP-PPK-2 could also utilize short chain polyphosphates, PolyP3 as the phosphate donor | – | – |
